Laboratory results: US11109588B2, “Stable liquid formulations and methods of using the same” (priority 2019, dated 2021)

Assay: Storage stability of liquid compositions in a sealed container, 8 weeks at 40° C., loss by HPLC
Format: physicochemical
Conditions: inert ingredients of Composition #7 of Table 3, aged 8 weeks at 40° C.

## COC(=O)c1sccc1S(=O)(=O)NC(=O)Nc1nc(C)nc(OC)n1 [Thifensulfuron-methyl, thifensulfuron-methyl]
  relative loss of thifensulfuron-methyl: less than 5 % w/w
